{"source": "patent US20190185544A1", "about": "“COMPOSITIONS AND METHODS OF MODULATING ABETA PROTEIN” (University of South Florida, priority 2016, published 2019)", "key": {"[1]": {"test_system": "N-terminal APP (sAPPα, sAPPβ, APP31/60)", "sequence (P05067 18-189 limits assumed)": "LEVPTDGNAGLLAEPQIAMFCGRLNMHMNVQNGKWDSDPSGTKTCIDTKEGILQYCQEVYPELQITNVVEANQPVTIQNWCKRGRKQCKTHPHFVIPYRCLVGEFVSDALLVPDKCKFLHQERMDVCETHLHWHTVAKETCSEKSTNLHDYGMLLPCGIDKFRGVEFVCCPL", "experiment": "In vitro co-immunoprecipitation with recombinant sAPPα/β and APP31/60", "assay_type": "binding, human", "settings": "sAPPα 100 nM, apoE4 100 nM, 6KApoEp or 6K at 5 or 10 μM, 1 h, 37° C.; P<0.05 at 10 μM"}, "N-terminus of APP": {"test_system": "N-terminus of APP", "sequence (P05067 18-189 limits assumed)": "as above", "experiment": "Co-immunoprecipitation and co-localisation with N-terminal APP in CHO/APPwt cells", "assay_type": "binding, human", "settings": "peptides 10 μM or apoE 10 μg/mL, 2 h; IP with 6H3B5 or pN-APP", "experimental": "Total secreted APP (t-sAPP) and full-length APP (f-APP) in total (inputs), immunoprecipitates and immunodepleted media and lysates were determined by WB using 22C11 or anti-C-terminal APP751/70 antibody (pC-APP), respectively (FIG. 20A left panels and FIG. 20B, top panels). Alternatively, conditioned media and cell lysates were IP with anti-N-terminal APP41/66 antibody (pN-APP) and apoE, or 6KApoEp and ApoEp, was determined using anti-human apoE antibody (ApoE1H4; FIG. 20A, right panels) or 6H3B5, respectively (FIG. 20B, bottom panels). In addition, CHO/APPwt cells were plated at 8 well-chambers at 1×10^5/well for 24 h, treated with 6K, ApoEp or 6KApoEp at 10 μM for 2 h, fixed in 4% paraformaldehyde and stained with 6H3B5 and pN-APP antibodies (FIG. 20C). Alexa Fluor 488 goat anti-mouse IgG (green) was used to detect ApoEp and 6KApoEp, while Alexa Fluor 594 donkey anti-rabbit IgG (red) was used to detect N-terminal APP. DAPI co-staining was done to show nuclear DNA. Homogenates prepared from three TgAPPwt mice (2 female/1 male), two AD patients (AD1[…], AD2[…]) and two normal age-matched control cortices (Ctrl1[…], Ctrl2[…]) were also IP with 6H3B5 or pN-APP and t-APP and apoE were determined using 6E10 and mApoE, respectively (FIGS. 20D-20E).\nTotal secreted APP in conditioned media and full length APP in cell lysates were then determined by WB using anti-N-terminal (22C11) and anti-C-terminal APP antibodies (pC-APP), respectively. […] In addition, ApoEp and 6KApoEp colocalized with N-terminal APP in cultured CHO/APPwt cells as determined by immunofluorescence staining with 6H3B5 and pN-APP antibodies (FIG. 20C), respectively, confirming that N-terminal APP physically associates with apoE in cell culture. […]\nWB analyses were performed as previously described^43,44. […] For all other proteins detected by WB, 10% tris-SDS gels were used. Densitometry analysis was performed as previously described using a FluorS Multiimager with Quantity One™ software 43. […]"}}, "data": [{"substance": "6K: 6 lysines control peptide (KKKKKK) [reference compound]", "values": [{"measurement": "co-immunoprecipitation of sAPPα with apoE4 (apoE4/sAPPα band density ratio)", "setting": "[1]", "value": "but not 6K, reduced co-immunoprecipitation of sAPPα with apoE4"}, {"measurement": "immunoprecipitation and localization with N-terminal APP", "setting": "N-terminus of APP", "value": "but not 6K, immunoprecipitated and localized with N-terminal APP"}]}]}
